The source of these data is BindingDB's records for doi:10.1038/nchembio.2306 (AbbVie Inc, 2017).

In assay [1] the target is T1, Polycomb protein EED (Homo sapiens, UniProt O75530). Nature of the assay: TR-FRET Binding Assay. Particulars: pH 7.5; 25 °C. The protocol: The following buffer was used to set up the binding reactions: 20 mM Tris-HCl pH 7.5, 200 mM NaCl, 0.01% Tween-20, 10 μM DTT, and 0.05% BSA, with the DTT and BSA added fresh before initiating the binding assay. […] The reactions were then incubated for 1 h at 25 °C in a humidified chamber to obtain thermodynamic equilibrium before detection on the PerkinElmer Envision plate reader using a LanthaScreen TR-FRET protocol.
T1 sequence (O75530 whole entry): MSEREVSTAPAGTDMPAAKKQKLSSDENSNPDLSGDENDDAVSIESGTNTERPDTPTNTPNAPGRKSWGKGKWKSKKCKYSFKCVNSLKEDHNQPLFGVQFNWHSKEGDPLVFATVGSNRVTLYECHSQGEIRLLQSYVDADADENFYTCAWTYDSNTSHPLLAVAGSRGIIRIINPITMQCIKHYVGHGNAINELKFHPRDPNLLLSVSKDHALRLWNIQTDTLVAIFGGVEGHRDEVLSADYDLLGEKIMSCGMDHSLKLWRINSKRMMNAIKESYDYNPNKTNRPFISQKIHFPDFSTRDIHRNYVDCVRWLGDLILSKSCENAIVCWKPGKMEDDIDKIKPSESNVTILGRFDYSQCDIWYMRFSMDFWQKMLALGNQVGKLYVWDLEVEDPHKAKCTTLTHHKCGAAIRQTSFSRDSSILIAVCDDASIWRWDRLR
On the technique in general: In TR-FRET formats the signal depends on donor and acceptor labels being close together.

The target of assay [2] is T1, Polycomb protein EED. In words: Radioligand Binding Assay. Particulars: 23 °C. The protocol:
30 μl of reaction mixtures were incubated at 23 °C for 70 min. To stop the enzymatic reactions, 150 μl of 10% trichloroacetic acetic acid (TCA) was added, mixed and transferred to filter plates (Millipore; cat. # MSFBN6B10). Plates were centrifuged at 2,000 r.p.m. (Allegra X-15R - Beckman Coulter, Inc.) for 2 min followed by two additional 10% TCA washes and one ethanol wash followed by centrifugation.

For assay [3], the target named is T1, Polycomb protein EED. Nature of the assay: EED A-395 Peptide Competition Assay. Conditions: pH 7.5; 25 °C. The protocol:
The following buffer was used to set up the binding reactions: 20 mM Tris-HCl pH 7.5, 200 mM NaCl, 0.01% Tween-20, 10 μM DTT, and 0.05% BSA, with the DTT and BSA added fresh before initiating the binding assay. […] The reactions were then incubated for 1 h at 25 °C in a humidified chamber before detection on the PerkinElmer Envision plate reader using an AlphaLISA/Screen protocol.

In general, Ki refers to the equilibrium dissociation constant of an inhibitor or competing ligand from its target. A higher Ki goes with weaker binding. Molecule `Cc1cccc(F)c1CN1C[C@H](c2cn(C)c3ccccc23)[C@@H](N(C)C)C1` (racemic) [rac-(3R,4S)-1-(2-fluoro-6-methylbenzyl)-N,N-dimethyl-4-(1-methyl-1H-indol-3-yl)pyrrolidin-3-amine (2)] registered an inhibitory constant (Ki) at Polycomb protein EED [1] of 4 nM.
In the case of `CN(C)[C@H]1CN([C@H]2CCc3cccc(F)c32)C[C@@H]1c1cn(C)c2ccccc12` [(3R,4S)-1-[(1S)-7-fluoroindan-1-yl]-N,N-dimethyl-4-(1-methylindol-3-yl)pyrrolidin-3-amine (3)], the affinity on Polycomb protein EED [1], expressed as Ki, was 1 nM.
One may read the IC50 as the midpoint of a concentration-inhibition curve. For the molecule `CN(C)[C@@H]1CN(Cc2ccccc2)C[C@H]1c1ccc(N2CCN(S(C)(=O)=O)CC2)cc1` [A-395N (6)], the values for the IC50 on Polycomb protein EED [2] and on Polycomb protein EED [3] were more than 50000 nM and 1320 nM, respectively. In addition, at Polycomb protein EED [1], the affinity corresponds to a Ki of 1830 nM.
